In patent US12398121B2 (Nuvation Bio Inc., priority 2018, dated 2025):

Molecular target: T1, ER Alpha-LBD (GST) (Homo sapiens, UniProt P03372)
T1 construct: purchased Thermo Fisher
T1 sequence (P03372 311-547 limits assumed): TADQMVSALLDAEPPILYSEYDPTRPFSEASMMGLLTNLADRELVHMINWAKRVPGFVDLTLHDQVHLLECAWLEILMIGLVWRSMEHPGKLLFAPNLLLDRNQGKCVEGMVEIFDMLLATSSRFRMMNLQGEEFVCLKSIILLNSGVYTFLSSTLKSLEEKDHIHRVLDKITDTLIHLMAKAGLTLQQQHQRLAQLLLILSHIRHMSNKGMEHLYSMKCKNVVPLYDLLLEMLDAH
Experiment: ER binding assay (LanthaScreen TR-FRET ER Alpha Competitive Binding Assay)
Details: Fluormone ES2 Green tracer, read-out: ERα Ki
Protocol: Cells were plated at varying density in the respective growth medium in 96 well plates. 24 hr later, cells were treated, in triplicate or quadruplicate, with test articles prepared in a range of concentrations by series dilution of DMSO stock solutions in growth medium and incubated for three to seven days. The number of viable 22RV1 and HT-29 cells was measured using CellTiter Glo assay (CTG, Promega, Madison, WI) after three days of treatment. The other types of cancer cells were re-treated at three or four days and the number of viable cells was measured using CTG assay after a total treatment time of six or seven days. Cell viability data were plotted using GraphPad Prism (GraphPad Software, Inc., San Diego, CA). In addition, a nonlinear regression model with a sigmoidal dose response and variable slope within GraphPad Prism was used to calculate the IC50 value of individual test articles. Additional cell proliferation assays: Other cancer cell lines are tested in a cell proliferation assay. For example, SK-OV-3 or OVCAR3 ovarian cancer cells are tested. Cells are cultured in medium recommended by the supplier (e.g., ATCC or JCRB Cell Bank), at 37° C. in a 5% CO2 environment. For the proliferation assay, cells are plated in the growth medium in 96 well plates. Seeding density is adjusted according to the cell type. […] The number of viable cells is measured using CellTiter Glo assay (CTG, Promega, Madison, WI) or similar. […] ER binding assay: ERα binding was assessed by the LanthaScreen® TR-FRET ER Alpha Competitive Binding Assay at Thermo Fisher. […] Competitive binding to the ER Alpha-LBD (GST) was detected by a test compound's ability to displace a fluorescent ligand (Fluormone™ ES2 Green tracer) from the ER Alpha-LBD (GST), which results in a loss of FRET signal between the Tb-anti-GST antibody and the tracer. […] After an incubation period at room temperature, the TR-FRET ratio of 520:495 emissions were calculated and was used to determine the IC50 from a dose response curve of the compound. […]

Q: CN(CCCCCC(=O)N1CCN(C(=O)c2cc(Cc3n[nH]c(=O)c4ccccc34)ccc2F)CC1)CCOc1ccc(C(=O)c2c(-c3ccc(O)cc3)sc3cc(O)ccc23)cc1 [Compound 2.4, 4-(4-fluoro-3-(4-(6-((2-(4-(6-hydroxy-2-(4-hydroxyphenyl)benzo[b]thiophene-3-carbonyl)phenoxy)ethyl)(methyl)amino)hexanoyl)piperazine-1-carbonyl)benzyl)phthalazin-1(2H)-one] was tested. Which Ki did it give?
A: 5 nM

Q: Which Ki does the source give for O=C(c1ccc(OCCN2CCN(C(=O)c3cc(Cc4n[nH]c(=O)c5ccccc45)ccc3F)CC2)cc1)c1c(-c2ccc(O)cc2)sc2cc(O)ccc12 [Compound 2.13, 4-(4-fluoro-3-(4-(2-(4-(6-hydroxy-2-(4-hydroxyphenyl)benzo[b]thiophene-3-carbonyl)phenoxy)ethyl)piperazine-1-carbonyl)benzyl)phthalazin-1(2H)-one] here?
A: 3.3 nM

Q: Which Ki does the source give for CCC(=C(c1ccc(O)cc1)c1ccc(OCCN2CCN(C(=O)c3cc(Cc4n[nH]c(=O)c5ccccc45)ccc3F)CC2)cc1)c1ccccc1 [Compound 2.14, 4-(4-fluoro-3-(4-(2-(4-(1-(4-hydroxyphenyl)-2-phenylbut-1-enyl)phenoxy)ethyl)piperazine-1-carbonyl)benzyl)pthalazin-1(2H)-one] here?
A: 3.5 nM
